From patent US11122789B2, “Termite preferred resource compositions and methods” (priority 2015, dated 2021)
Read-outs that look alike come from different tables or passages of the source.

What was measured:
Type in all cases: in vivo
Reticulitermes flavipes [1] = conditions: 10 ppmai; 2 DA-A
Reticulitermes flavipes [2] = conditions: for INSECT ACTIVIIS 0-4: scale 0 death, 4 normal behaviour; for % Mortality: 0.15 % v/v on ground Sabal palm
Protocol: (§1) Bioassay tubes were loaded with 0.2 g of finely ground Sabal palm materials into microtubes. One mL of dilute active ingredient (described below) was applied to the tube and fully absorbed by the palm materials. The tubes were placed in petri dishes on a 3 mm sand base. Thirty to forty workers and soldiers from the field-collected Reticulitermes and Coptotermes colonies were introduced to the petri dishes. Termite activity was evaluated on a 0-4 scale, with 0 denoting death and 4 indicating normal behaviour. Mortality was recorded weekly for up to 9 weeks, depending on survivorship.

Coptotermes formosanus = conditions: for INSECT ACTIVIIS 0-4: scale 0 death, 4 normal behaviour; for % Mortality: 0.15 % v/v on ground Sabal palm
Protocol: as §1

[3] = 7.5 ppmai on ground Sabal palm, 5 DA-A
[4] = 75 ppmai on ground Sabal palm, 5 DA-A
[5] = 150 ppmai on ground Sabal palm, 5 DA-A
[6] = 300 ppmai on ground Sabal palm, 5 DA-A

## CNC(=O)c1cc(Cl)cc(C)c1NC(=O)c1cc(Br)nn1-c1ncccc1Cl [Chlorantraniliprole]
Reticulitermes flavipes [1]
  TUNNEL LENGTH: 4 CM
Reticulitermes flavipes [2]; 1 ppmai, 2 DA-A
  TUNNEL LENGTH: 4 CM
  INSECT ACTIVIIS 0-4: 4 0-4
Reticulitermes flavipes [2]; 1 ppmai, 7 DA-A
  INSECT % MORTAL: 0.8%
  INSECT ACTIVIIS 0-4: 4 0-4
Reticulitermes flavipes [2]; 1 ppmai, 9 DA-A
  INSECT % MORTAL: 2.4%
Reticulitermes flavipes [2]; 1 ppmai, 20 DA-A
  INSECT % MORTAL: 4.1%
  INSECT ACTIVIIS 0-4: 4 0-4
Reticulitermes flavipes [2]; 10 ppmai, 2 DA-A
  INSECT ACTIVIIS 0-4: 3.3 0-4
Reticulitermes flavipes [2]; 10 ppmai, 7 DA-A
  INSECT % MORTAL: 0.2%
  INSECT ACTIVIIS 0-4: 4 0-4
Reticulitermes flavipes [2]; 10 ppmai, 9 DA-A
  INSECT % MORTAL: 0.5%
Reticulitermes flavipes [2]; 10 ppmai, 20 DA-A
  INSECT % MORTAL: 4.92%
  INSECT ACTIVIIS 0-4: 4 0-4
Reticulitermes flavipes [2]; 50 ppmai, 2 DA-A
  TUNNEL LENGTH: 2 CM
  INSECT ACTIVIIS 0-4: 2.3 0-4
Reticulitermes flavipes [2]; 50 ppmai, 7 DA-A
  INSECT % MORTAL: 13%
  INSECT ACTIVIIS 0-4: 2 0-4
Reticulitermes flavipes [2]; 50 ppmai, 9 DA-A
  INSECT % MORTAL: 94.7%
Reticulitermes flavipes [2]; 50 ppmai, 20 DA-A
  INSECT % MORTAL: 100%
  INSECT ACTIVIIS 0-4: 0 0-4
Reticulitermes flavipes [2]; 100 ppmai, 2 DA-A
  TUNNEL LENGTH: 1 CM
  INSECT ACTIVIIS 0-4: 1.3 0-4
Reticulitermes flavipes [2]; 100 ppmai, 7 DA-A
  INSECT % MORTAL: 15%
  INSECT ACTIVIIS 0-4: 1 0-4
Reticulitermes flavipes [2]; 100 ppmai, 9 DA-A
  INSECT % MORTAL: 100%
Reticulitermes flavipes [2]; 100 ppmai, 20 DA-A
  INSECT % MORTAL: 100%
  INSECT ACTIVIIS 0-4: 0 0-4
Coptotermes formosanus; 1 ppmai, 2 DA-A
  TUNNEL LENGTH: 4 CM
  INSECT ACTIVIIS 0-4: 3.3 0-4
Coptotermes formosanus; 1 ppmai, 7 DA-A
  INSECT % MORTAL: 5.4%
  INSECT ACTIVIIS 0-4: 3.8 0-4
Coptotermes formosanus; 1 ppmai, 9 DA-A
  INSECT % MORTAL: 2.3%
Coptotermes formosanus; 1 ppmai, 20 DA-A
  INSECT % MORTAL: 93.4%
  INSECT ACTIVIIS 0-4: 0.5 0-4
Coptotermes formosanus; 10 ppmai, 2 DA-A
  TUNNEL LENGTH: 4 CM
  INSECT ACTIVIIS 0-4: 4 0-4
Coptotermes formosanus; 10 ppmai, 7 DA-A
  INSECT % MORTAL: 1.3%
  INSECT ACTIVIIS 0-4: 3.3 0-4
Coptotermes formosanus; 10 ppmai, 9 DA-A
  INSECT % MORTAL: 1.5%
Coptotermes formosanus; 10 ppmai, 20 DA-A
  INSECT % MORTAL: 91.1%
  INSECT ACTIVIIS 0-4: 0.8 0-4
Coptotermes formosanus; 50 ppmai, 2 DA-A
  TUNNEL LENGTH: 1 CM
  INSECT ACTIVIIS 0-4: 1.5 0-4
Coptotermes formosanus; 50 ppmai, 7 DA-A
  INSECT % MORTAL: 23.2%
  INSECT ACTIVIIS 0-4: 1 0-4
Coptotermes formosanus; 50 ppmai, 9 DA-A
  INSECT % MORTAL: 90.8%
Coptotermes formosanus; 50 ppmai, 20 DA-A
  INSECT % MORTAL: 100%
  INSECT ACTIVIIS 0-4: 0 0-4
Coptotermes formosanus; 100 ppmai, 2 DA-A
  TUNNEL LENGTH: 1.5 CM
  INSECT ACTIVIIS 0-4: 1 0-4
Coptotermes formosanus; 100 ppmai, 7 DA-A
  INSECT % MORTAL: 60.5%
  INSECT ACTIVIIS 0-4: 1 0-4
Coptotermes formosanus; 100 ppmai, 9 DA-A
  INSECT % MORTAL: 98.3%
Coptotermes formosanus; 100 ppmai, 20 DA-A
  INSECT % MORTAL: 100%
  INSECT ACTIVIIS 0-4: 0 0-4

## O=C(NC(=O)c1c(F)cccc1F)Nc1cc(Cl)c(OC(F)(F)C(F)C(F)(F)F)cc1Cl (stereo not shown) [Lufenuron]
Reticulitermes flavipes [2]; 4 DA-A
  % Mortality: 11.25%
Reticulitermes flavipes [2]; 7 DA-A
  % Mortality: 50%
Reticulitermes flavipes [2]; 11 DA-A
  % Mortality: 51.25%
Reticulitermes flavipes [2]; 18 DA-A
  % Mortality: 51.25%
Reticulitermes flavipes [2]; 25 DA-A
  % Mortality: 51.88%
Reticulitermes flavipes [2]; 32 DA-A
  % Mortality: 68.75%
Reticulitermes flavipes [2]; 41 DA-A
  % Mortality: 70.63%
Reticulitermes flavipes [2]; 53 DA-A
  % Mortality: 86.25%
Reticulitermes flavipes [2]; 63 DA-A
  % Mortality: 96.25%
Coptotermes formosanus; 4 DA-A
  % Mortality: 4.38%
Coptotermes formosanus; 7 DA-A
  % Mortality: 7.5%
Coptotermes formosanus; 11 DA-A
  % Mortality: 14.38%
Coptotermes formosanus; 18 DA-A
  % Mortality: 21.25%
Coptotermes formosanus; 25 DA-A
  % Mortality: 45%
Coptotermes formosanus; 32 DA-A
  % Mortality: 93.8%
Coptotermes formosanus; 41 DA-A
  % Mortality: 100%

## COC(=O)N(C(=O)N1CO[C@@]2(C(=O)OC)Cc3cc(Cl)ccc3C2=N1)c1ccc(OC(F)(F)F)cc1 [Indoxacarb]
Reticulitermes flavipes [2]; 7.5 ppmai on ground Sabal palm, 3 DA-A
  % MORT: 9.66%
Reticulitermes flavipes [2]; [3]
  % MORT: 56.71%
Reticulitermes flavipes [2]; 7.5 ppmai on ground Sabal palm, 10 DA-A
  % MORT: 99.79%
Reticulitermes flavipes [2]; 75 ppmai on ground Sabal palm, 3 DA-A
  % MORT: 16.59%
Reticulitermes flavipes [2]; [4]
  % MORT: 87.91%
Reticulitermes flavipes [2]; 75 ppmai on ground Sabal palm, 10 DA-A
  % MORT: 100%
Reticulitermes flavipes [2]; 150 ppmai on ground Sabal palm, 3 DA-A
  % MORT: 22.94%
Reticulitermes flavipes [2]; [5]
  % MORT: 87.84%
Reticulitermes flavipes [2]; 150 ppmai on ground Sabal palm, 10 DA-A
  % MORT: 100%
Reticulitermes flavipes [2]; 300 ppmai on ground Sabal palm, 3 DA-A
  % MORT: 47.09%
Reticulitermes flavipes [2]; [6]
  % MORT: 98.42%
Reticulitermes flavipes [2]; 300 ppmai on ground Sabal palm, 10 DA-A
  % MORT: 100%
Coptotermes formosanus; [3]
  % MORT: 0%
Coptotermes formosanus; 7.5 ppmai on ground Sabal palm, 7 DA-A
  % MORT: 0%
Coptotermes formosanus; 7.5 ppmai on ground Sabal palm, 12 DA-A
  % MORT: 0%
Coptotermes formosanus; 7.5 ppmai on ground Sabal palm, 20 DA-A
  % MORT: 2.5%
Coptotermes formosanus; 7.5 ppmai on ground Sabal palm, 28 DA-A
  % MORT: 5%
Coptotermes formosanus; 7.5 ppmai on ground Sabal palm, 42 DA-A
  % MORT: 90%
Coptotermes formosanus; [4]
  % MORT: 0.013%
Coptotermes formosanus; 75 ppmai on ground Sabal palm, 7 DA-A
  % MORT: 0.038%
Coptotermes formosanus; 75 ppmai on ground Sabal palm, 12 DA-A
  % MORT: 11.68%
Coptotermes formosanus; 75 ppmai on ground Sabal palm, 20 DA-A
  % MORT: 35%
Coptotermes formosanus; 75 ppmai on ground Sabal palm, 28 DA-A
  % MORT: 93.8%
Coptotermes formosanus; 75 ppmai on ground Sabal palm, 42 DA-A
  % MORT: 100%
Coptotermes formosanus; [5]
  % MORT: 0%
Coptotermes formosanus; 150 ppmai on ground Sabal palm, 7 DA-A
  % MORT: 0.013%
Coptotermes formosanus; 150 ppmai on ground Sabal palm, 12 DA-A
  % MORT: 17.48%
Coptotermes formosanus; 150 ppmai on ground Sabal palm, 20 DA-A
  % MORT: 37.5%
Coptotermes formosanus; 150 ppmai on ground Sabal palm, 28 DA-A
  % MORT: 98.8%
Coptotermes formosanus; 150 ppmai on ground Sabal palm, 42 DA-A
  % MORT: 100%
Coptotermes formosanus; [6]
  % MORT: 0%
Coptotermes formosanus; 300 ppmai on ground Sabal palm, 7 DA-A
  % MORT: 0%
Coptotermes formosanus; 300 ppmai on ground Sabal palm, 12 DA-A
  % MORT: 17.5%
Coptotermes formosanus; 300 ppmai on ground Sabal palm, 20 DA-A
  % MORT: 93.8%
Coptotermes formosanus; 300 ppmai on ground Sabal palm, 28 DA-A
  % MORT: 100%
Coptotermes formosanus; 300 ppmai on ground Sabal palm, 42 DA-A
  % MORT: 100%

## CNC(=O)c1cc(C#N)cc(C)c1NC(=O)c1cc(Br)nn1-c1ncccc1Cl [Cyantraniliprole]
Coptotermes formosanus; 5 ppmai on ground Sabal palm, 5 DA-A
  % MORT: 0.5%
Coptotermes formosanus; 5 ppmai on ground Sabal palm, 11 DA-A
  % MORT: 1.2%
Coptotermes formosanus; 5 ppmai on ground Sabal palm, 19 DA-A
  % MORT: 1.2%
Coptotermes formosanus; 5 ppmai on ground Sabal palm, 37 DA-A
  % MORT: 1.2%
Coptotermes formosanus; 50 ppmai on ground Sabal palm, 5 DA-A
  % MORT: 3.9%
Coptotermes formosanus; 50 ppmai on ground Sabal palm, 11 DA-A
  % MORT: 100%
Coptotermes formosanus; 50 ppmai on ground Sabal palm, 19 DA-A
  % MORT: 100%
Coptotermes formosanus; 50 ppmai on ground Sabal palm, 37 DA-A
  % MORT: 100%
Coptotermes formosanus; 100 ppmai on ground Sabal palm, 5 DA-A
  % MORT: 49.3%
Coptotermes formosanus; 100 ppmai on ground Sabal palm, 11 DA-A
  % MORT: 100%
Coptotermes formosanus; 100 ppmai on ground Sabal palm, 19 DA-A
  % MORT: 100%
Coptotermes formosanus; 100 ppmai on ground Sabal palm, 37 DA-A
  % MORT: 100%
Coptotermes formosanus; 200 ppmai on ground Sabal palm, 5 DA-A
  % MORT: 80.1%
Coptotermes formosanus; 200 ppmai on ground Sabal palm, 11 DA-A
  % MORT: 100%
Coptotermes formosanus; 200 ppmai on ground Sabal palm, 19 DA-A
  % MORT: 100%
Coptotermes formosanus; 200 ppmai on ground Sabal palm, 37 DA-A
  % MORT: 100%
